# Measured values as given in patent US20220347175A1, “PYRIDAZINONE DERIVATIVE” (Sumitomo Dainippon Pharma Co., Ltd., priority 2018, published 2022).
# Columns and labels:
# human Nav1.5 = molecular target: T1, human Nav1.5 (Homo sapiens, UniProt Q14524); experiment: Amplification of Nav1.5-derived voltage-dependent sodium current (Nav1.5 current), cell line stably expressing human Nav1.5, automated patch clamp; format: cell-based; settings: for activation at 1 µM: compound 1 μmol/L, read-out: Nav1.5 current amplification rate (%)
# T1 construct: expressed in transfected cells; host or cells: CHO-K1 (T-REx System, ThermoFisher Scientific)
# human Nav1.1 = molecular target: T2, human Nav1.1 (Homo sapiens, UniProt P35498); experiment: Amplification of Nav1.1-derived voltage-dependent sodium current (Nav1.1 current), cell line stably expressing human Nav1.1, automated patch clamp; format: cell-based; settings: for activation at 1 µM: compound 1 μmol/L, read-out: Nav1.1 current amplification rate (%)
# T2 construct: host or cells: HEK293
# Method in brief: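 Automated whole-cell voltage-clamp recordings used HEK293 cells stably expressing human Nav1.1, keeping only cells with >500 pA current, with currents evoked by ramp voltage. Compounds were applied in extracellular fluid with 1% DMSO, and amplification (%) was computed from peak current or AUC after versus before addition.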
# [1] = compound 3 μmol/L, CHO-K1 stably expressing human Nav1.5
# [2] = compound 3 μmol/L, HEK293 stably expressing human Nav1.1
# [3] = 10 μmol/L compound, change of the area under the curve of Nav1.5 current (Test Result 1)
# [4] = 10 μmol/L compound, change of the area under the curve of Nav1.1 current (Test Result 1)
# [5] = CHO-K1 stably expressing human Nav1.5
# [6] = HEK293 stably expressing human Nav1.1
# T1 sequence (Q14524 1-2015 isoform Q14524-2): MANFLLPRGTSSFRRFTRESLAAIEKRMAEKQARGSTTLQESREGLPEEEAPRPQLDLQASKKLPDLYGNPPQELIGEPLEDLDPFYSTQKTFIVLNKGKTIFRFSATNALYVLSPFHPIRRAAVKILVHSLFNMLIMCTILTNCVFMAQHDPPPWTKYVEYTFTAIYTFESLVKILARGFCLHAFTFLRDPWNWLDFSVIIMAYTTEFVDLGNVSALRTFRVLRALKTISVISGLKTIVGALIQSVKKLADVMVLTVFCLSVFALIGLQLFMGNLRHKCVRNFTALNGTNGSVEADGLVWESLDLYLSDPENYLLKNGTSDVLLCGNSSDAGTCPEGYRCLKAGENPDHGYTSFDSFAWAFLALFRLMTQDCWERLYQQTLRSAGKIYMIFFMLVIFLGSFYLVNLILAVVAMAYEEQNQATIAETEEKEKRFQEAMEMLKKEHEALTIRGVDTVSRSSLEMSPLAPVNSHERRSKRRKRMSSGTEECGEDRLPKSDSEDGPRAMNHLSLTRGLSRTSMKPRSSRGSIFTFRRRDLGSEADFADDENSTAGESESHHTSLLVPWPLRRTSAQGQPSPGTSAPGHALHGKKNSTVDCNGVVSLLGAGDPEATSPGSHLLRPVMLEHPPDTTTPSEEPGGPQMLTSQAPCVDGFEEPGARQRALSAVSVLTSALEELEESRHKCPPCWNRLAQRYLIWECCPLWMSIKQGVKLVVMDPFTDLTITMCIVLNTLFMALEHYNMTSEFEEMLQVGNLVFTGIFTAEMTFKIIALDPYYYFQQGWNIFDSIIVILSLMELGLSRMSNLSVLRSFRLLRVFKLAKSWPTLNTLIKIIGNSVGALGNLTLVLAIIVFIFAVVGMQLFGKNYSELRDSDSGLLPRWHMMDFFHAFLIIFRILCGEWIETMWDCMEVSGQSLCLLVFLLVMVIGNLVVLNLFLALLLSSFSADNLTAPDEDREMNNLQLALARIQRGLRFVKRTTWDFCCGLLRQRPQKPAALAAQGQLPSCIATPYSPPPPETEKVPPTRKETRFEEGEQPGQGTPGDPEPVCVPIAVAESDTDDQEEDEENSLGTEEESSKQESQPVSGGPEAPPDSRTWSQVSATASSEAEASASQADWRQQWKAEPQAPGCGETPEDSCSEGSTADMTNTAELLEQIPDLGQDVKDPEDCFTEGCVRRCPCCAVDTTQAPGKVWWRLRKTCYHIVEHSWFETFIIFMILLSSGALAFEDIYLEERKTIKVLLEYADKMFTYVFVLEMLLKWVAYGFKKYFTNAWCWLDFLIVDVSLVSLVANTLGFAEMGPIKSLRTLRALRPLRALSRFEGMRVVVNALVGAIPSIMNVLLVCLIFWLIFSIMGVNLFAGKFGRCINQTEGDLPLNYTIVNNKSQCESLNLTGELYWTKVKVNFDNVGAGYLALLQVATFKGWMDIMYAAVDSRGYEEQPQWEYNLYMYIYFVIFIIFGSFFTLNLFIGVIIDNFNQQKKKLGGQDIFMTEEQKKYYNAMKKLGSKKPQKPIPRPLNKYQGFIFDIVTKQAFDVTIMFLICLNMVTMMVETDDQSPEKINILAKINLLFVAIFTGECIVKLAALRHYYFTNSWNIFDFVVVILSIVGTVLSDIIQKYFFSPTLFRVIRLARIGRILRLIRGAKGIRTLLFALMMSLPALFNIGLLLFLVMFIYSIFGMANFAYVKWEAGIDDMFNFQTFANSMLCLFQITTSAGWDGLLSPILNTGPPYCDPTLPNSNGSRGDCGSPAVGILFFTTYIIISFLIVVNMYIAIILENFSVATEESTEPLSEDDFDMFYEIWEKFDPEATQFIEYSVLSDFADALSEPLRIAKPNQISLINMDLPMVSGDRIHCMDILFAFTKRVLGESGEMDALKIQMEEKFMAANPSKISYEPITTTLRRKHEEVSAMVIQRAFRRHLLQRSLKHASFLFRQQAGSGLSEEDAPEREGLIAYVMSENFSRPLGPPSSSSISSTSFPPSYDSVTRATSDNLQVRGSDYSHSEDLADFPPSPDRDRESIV
Nav1.1 current amplification rate (%) (human Nav1.1; [2]),Nav1.1 current amplification rate (%) (human Nav1.1; [4]),Structure (SMILES),Nav1.5 current amplification rate (%) (human Nav1.5; [1]),Nav1.5 current amplification rate (%) (human Nav1.5; [3]),other results
66%,,Cc1ncccc1N1CCN(C(=O)Cn2nc(C3=CCC(C)CC3)ccc2=O)CC1 (stereo not shown) [Example 410],10%,,
27%,,COc1cc(N2CCN(C(=O)Cn3nc(C4=CCC(C)CC4)ccc3=O)CC2)ccc1F (stereo not shown) [Example 413],1%,,
,199%,CC1CC=C(c2ccc(=O)n(CC(=O)Nc3ccn4cc(C(F)(F)F)nc4c3)n2)CC1 (stereo not shown) [Example 421],,34%,
,287%,Cc1nc2cc(NC(=O)Cn3nc(C4=CCC(C)CC4)ccc3=O)ccc2o1 (stereo not shown) [Example 422],,28%,
,40%,CC1CC=C(c2ccc(=O)n(CC(=O)N3CC4(C3)CN(c3cccnc3)C4)n2)CC1 (stereo not shown) [Example 424],,2%,
,172%,CC1(C)CC=C(c2ccc(=O)n(CC(=O)Nc3ccn4nccc4c3)n2)CC1 [Example 427],,63%,

# The next lines start with the compound.
Structure (SMILES),Nav1.1 current amplification rate (%) (human Nav1.1; [2]),Nav1.1 current amplification rate (%) (human Nav1.1; [4]),Nav1.5 current amplification rate (%) (human Nav1.5; [1]),Nav1.5 current amplification rate (%) (human Nav1.5; [3]),other results
COc1ccc(N2CCN(C(=O)Cn3nc(C4=CCC(C)CC4)ccc3=O)CC2)cn1 (stereo not shown) [Example 407],113%,,6%,,
COc1ncc(N2CCN(C(=O)Cn3nc(C4=CCC(C)CC4)ccc3=O)CC2)cc1F (stereo not shown) [Example 409],244%,,11%,,
CC1CC=C(c2ccc(=O)n(CC(=O)N3CCN(c4nccs4)CC3)n2)CC1 (stereo not shown) [Example 414],,40%,,−2%,
CC1CC=C(c2ccc(=O)n(CC(=O)N3CCN(c4cnn(C)c4)CC3)n2)CC1 (stereo not shown) [Example 415],,93%,,2%,
CC1CC=C(c2ccc(=O)n(CC(=O)N3CC(C)N(c4cccnc4)C(C)C3)n2)CC1 (stereo not shown) [Example 416],,383%,,86%,
CC1CC=C(c2ccc(=O)n(CC(=O)N3C[C@H](C)N(c4cccnc4)C[C@H]3C)n2)CC1 (stereo partly shown) [Example 417],23%,,1%,,
COc1cnc(C)c(N2CCN(C(=O)Cn3nc(C4=CCC(C)CC4)ccc3=O)CC2)c1 (stereo not shown) [Example 418],105%,,7%,,
Cc1noc2ccc(NC(=O)Cn3nc(C4=CCC(C)CC4)ccc3=O)cc12 (stereo not shown) [Example 423],,11%,,4%,
CC1(C)CC=C(c2ccc(=O)n(CC(=O)Nc3ccn4ccnc4c3)n2)CC1 [Example 425],,283%,,60%,
CC1(C)CC=C(c2ccc(=O)n(CC(=O)Nc3ccc4c(c3)OCC4)n2)CC1 [Example 426],,244%,,20%,
"CC1(C)CC=C(c2ccc(=O)n(CC(=O)Nc3ccc4ncnn4c3)n2)CC1 [Example 428, 2-[3-(4,4-dimethylcyclohex-1-en-1-yl)-6-oxopyridazin-1(6H)-yl]-N-([1,2,4]triazolo[1,5-a]pyridin-6-yl)acetamide]",,,,,activation at 1 µM (human Nav1.5; [5]): 23%; activation at 1 µM (human Nav1.1; [6]): 109%
"CC1(C)CC=C(c2ccc(=O)n(CC(=O)Nc3ccn4ncnc4c3)n2)CC1 [Example 429, 2-[3-(4,4-dimethylcyclohex-1-en-1-yl)-6-oxopyridazin-1(6H)-yl]-N-([1,2,4]triazolo[1,5-a]pyridin-7-yl)acetamide]",,,,,activation at 1 µM (human Nav1.5; [5]): 28%; activation at 1 µM (human Nav1.1; [6]): 101%
COc1ccc2c(c1)CCN2C(=O)Cn1nc(C2=CCC(C)(C)CC2)ccc1=O [Example 430],,28%,,22%,
COc1cccc2c1CCN2C(=O)Cn1nc(C2=CCC(C)(C)CC2)ccc1=O [Example 431],,11%,,3%,
